# Measurements from patent US11612604B2, “Methods of treating cancer with PLK4 inhibitors” (LUDWIG INSTITUTE FOR CANCER RESEARCH LTD, priority 2017, dated 2023).
# Target: T1, PLK4 (Homo sapiens, UniProt O00444)
# T1 sequence (O00444 1-970): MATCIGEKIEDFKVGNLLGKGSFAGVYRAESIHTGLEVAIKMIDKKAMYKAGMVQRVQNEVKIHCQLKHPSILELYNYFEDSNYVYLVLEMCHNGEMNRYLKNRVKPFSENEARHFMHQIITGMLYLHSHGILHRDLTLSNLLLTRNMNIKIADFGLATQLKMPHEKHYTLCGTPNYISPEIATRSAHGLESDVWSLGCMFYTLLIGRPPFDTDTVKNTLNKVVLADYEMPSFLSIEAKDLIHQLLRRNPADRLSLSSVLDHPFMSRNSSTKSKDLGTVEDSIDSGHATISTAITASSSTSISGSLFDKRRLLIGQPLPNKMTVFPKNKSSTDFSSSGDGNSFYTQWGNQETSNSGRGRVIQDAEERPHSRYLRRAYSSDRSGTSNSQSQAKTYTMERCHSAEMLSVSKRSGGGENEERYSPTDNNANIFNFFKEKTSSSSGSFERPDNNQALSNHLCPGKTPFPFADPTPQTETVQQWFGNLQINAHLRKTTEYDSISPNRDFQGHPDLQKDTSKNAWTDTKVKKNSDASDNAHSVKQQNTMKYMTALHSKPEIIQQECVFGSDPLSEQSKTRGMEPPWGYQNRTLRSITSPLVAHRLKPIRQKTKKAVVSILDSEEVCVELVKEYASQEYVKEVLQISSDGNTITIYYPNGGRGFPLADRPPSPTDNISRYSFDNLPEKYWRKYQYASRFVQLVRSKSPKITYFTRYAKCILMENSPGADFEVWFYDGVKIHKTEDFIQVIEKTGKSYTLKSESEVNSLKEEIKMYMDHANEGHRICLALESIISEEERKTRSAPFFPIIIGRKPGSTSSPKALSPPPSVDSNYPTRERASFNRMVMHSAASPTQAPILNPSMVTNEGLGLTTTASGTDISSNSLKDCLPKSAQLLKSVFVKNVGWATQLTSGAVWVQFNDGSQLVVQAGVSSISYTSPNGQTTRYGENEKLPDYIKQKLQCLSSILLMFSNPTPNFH
# Assay: Activity (IC50) of the Table 1 compounds as PLK4 inhibitors
# Type: biochemical
# Settings: Table 1, IC50 class
row,Structure (SMILES),IC50 [nM]
1,CC(=O)Nc1ccc(Sc2nc(Nc3cc(C)[nH]n3)c(C)c(N3CCCCC3)n2)cc1,< 100
2,COCCN(C)c1nc(Sc2ccc(NC(C)=O)cc2)nc(Nc2cc(C)[nH]n2)c1C,< 100
3,COc1c(Nc2cc(C)[nH]n2)nc(Sc2ccc(NC(C)=O)cc2)nc1N1CCN(CCN)CC1,< 100
4,CCN(CC)CCN1CCN(c2nc(Sc3ccc(NC(C)=O)cc3)nc(Nc3cc(C)[nH]n3)c2OC)CC1,< 100
5,COc1c(Nc2cc(C)[nH]n2)nc(Sc2ccc(NC(C)=O)cc2)nc1N1CCN(CCN2CCNCC2)CC1,< 100
6,COC(=O)CC1CCN(c2nc(Sc3ccc(NC(C)=O)cc3)nc(Nc3cc(C)[nH]n3)c2OC)CC1,< 100
7,COc1c(Nc2cc(C)[nH]n2)nc(Sc2ccc(NC(C)=O)cc2)nc1N1CCN(CC(=O)O)CC1,< 100
8,COc1c(Nc2cc(C)[nH]n2)nc(Sc2ccc(NC(C)=O)cc2)nc1N1CCC(CC(N)=O)CC1,< 100
9,COc1c(Nc2cc(C)[nH]n2)nc(Sc2ccc(NC(C)=O)cc2)nc1N1CCN(CCN(C)OC)CC1,< 100
10,COc1c(Nc2cc(C)[nH]n2)nc(Sc2ccc(NC(C)=O)cc2)nc1N1CCN(CCNC(N)=O)CC1,< 100
11,COc1c(Nc2cc(C)[nH]n2)nc(Sc2ccc(NC(C)=O)cc2)nc1N1CC(C)N(CCN(C)C)C(C)C1 (stereo not shown),< 100
12,COC(=O)CN1CCN(c2nc(Sc3ccc(NC(C)=O)cc3)nc(Nc3cc(C)[nH]n3)c2OC)CC1,< 100
13,COC(=O)c1ccc(Sc2nc(Nc3cc(C)[nH]n3)c(OC)c(N3CCN(CCN(C)C)CC3)n2)cc1,< 100
14,COc1c(Nc2cc(C)[nH]n2)nc(Sc2ccc(NC(C)=O)cc2)nc1N1CCN(CC(=O)N2CCCCC2)CC1,< 100
15,CNC(=O)c1ccc(Sc2nc(Nc3cc(C)[nH]n3)c(OC)c(N3CCN(CCN(C)C)CC3)n2)cc1,< 100
16,COc1c(Nc2cc(C)[nH]n2)nc(Sc2ccc(NC(C)=O)cc2)nc1N1CCN(CCN(C)Cc2ccccc2)CC1,< 100
17,COc1c(Nc2cc(C)[nH]n2)nc(Sc2ccc(NC(C)=O)cc2)nc1N1CCN(CCN(C)c2ccccc2)CC1,< 100
18,COc1c(Nc2cc(C)[nH]n2)nc(Sc2ccc([S+](C)[O-])cc2)nc1N1CCN(CCN(C)C)CC1 (stereo not shown),< 100
19,COc1c(Nc2cc(C)[nH]n2)nc(Sc2ccc(NC(C)=O)cc2)nc1N1CCN(CCS(C)(=O)=O)CC1,< 100

row,Structure (SMILES),IC50 [nM]
1,COc1c(Nc2cc(C)[nH]n2)nc(Sc2ccc(NC(C)=O)cc2)nc1N1CCN(CCN2C3CCCC2CCC3)CC1,< 100
2,COc1c(Nc2ncc(C)s2)nc(Sc2ccc(NC(C)=O)cc2)nc1N1CCN(CCN(C)C)CC1,< 100
3,COc1c(Nc2cc(C)[nH]n2)nc(Sc2ccc(S(C)(=O)=O)cc2)nc1N1CCN(CCN2CCN(C)CC2)CC1,< 100
4,COc1c(Nc2cc(C)[nH]n2)nc(Sc2ccc(NS(C)(=O)=O)cc2)nc1N1CCN(CCN(C)C)CC1,< 100
5,CCS(=O)(=O)c1ccc(Sc2nc(Nc3cc(C)[nH]n3)c(OC)c(N3CCN(CCN(C)C)CC3)n2)cc1,< 100
6,COc1c(Nc2cc(C)[nH]n2)nc(Sc2ccc(S(=O)(=O)C(F)(F)F)cc2)nc1N1CCN(CCN(C)C)CC1,< 100
7,COc1c(Nc2cc(C)[nH]n2)nc(Sc2ccc(S(=O)(=O)N(C)C)cc2)nc1N1CCN(CCN(C)C)CC1,< 100
8,COc1c(Nc2cc(C)[nH]n2)nc(Sc2ccc(S(=O)(=O)Cc3ccccc3)cc2)nc1N1CCN(CCN(C)C)CC1,< 100
9,COc1c(Nc2cc(C)[nH]n2)nc(Sc2ccc(NC(C)=O)cc2)nc1C1CCN(CCN2CCN(C)CC2)CC1,100 to 1000
10,CCCS(=O)(=O)c1ccc(Sc2nc(Cc3cc(C)[nH]n3)c(OC)c(N3CCN(CCN(C)C)CC3)n2)cc1,< 100
11,CCS(=O)(=O)c1ccc(Sc2nc(Nc3cc(C)[nH]n3)c(OC)c(N3CCC(CCN(C)C)CC3)n2)cc1,< 100
12,CCS(=O)(=O)c1ccc(Sc2nc(Nc3cc(C)[nH]n3)c(OC)c(N3CCN(CCN4CCN(C)CC4)CC3)n2)cc1,< 100
13,COc1c(Nc2cc(C)[nH]n2)nc(Sc2ccc(S(=O)(=O)Cc3ccccc3Cl)cc2)nc1N1CCN(CCN(C)C)CC1,< 100
14,COc1c(Nc2cc(C)[nH]n2)nc(Sc2ccc(S(=O)(=O)Cc3cccc(Cl)c3)cc2)nc1N1CCN(CCN(C)C)CC1,< 100
15,COc1c(Nc2cc(C)[nH]n2)nc(Sc2ccc(S(=O)(=O)Cc3ccncc3)cc2)nc1N1CCN(CCN(C)C)CC1,< 100
16,COc1c(Nc2cc(C)[nH]n2)nc(Sc2ccc(S(=O)(=O)Cc3ccc(Cl)cc3)cc2)nc1N1CCN(CCN(C)C)CC1,< 100
17,COc1c(Nc2cc(C)[nH]n2)nc(Sc2ccc(S(=O)(=O)Cc3cccs3)cc2)nc1N1CCN(CCN(C)C)CC1,< 100
18,COc1c(Nc2cc(C)[nH]n2)nc(Sc2ccc(S(=O)(=O)Cc3nccs3)cc2)nc1N1CCN(CCN(C)C)CC1,< 100

# Now from value to molecule:
row,IC50 [nM],Structure (SMILES)
1,< 100,COCCNc1nc(Sc2ccc(NC(C)=O)cc2)nc(Nc2cc(C)[nH]n2)c1C
2,< 100,COc1c(Nc2cc(C)[nH]n2)nc(Sc2ccc(NC(=O)C3CCCC3)cc2)nc1N1CCOCC1
3,< 100,COc1c(Nc2cc(C)[nH]n2)nc(Sc2ccc(NC(=O)C3CCCC3)cc2)nc1N(C)C
4,< 100,COc1c(Nc2cc(C)[nH]n2)nc(Sc2ccc(NC(C)=O)cc2)nc1N1CCC(CC(=O)O)CC1
5,< 100,COc1c(Nc2cc(C)[nH]n2)nc(Sc2ccc(NC(C)=O)cc2)nc1N1CCN(CCN2CCN(C)CC2)CC1
6,< 100,COc1c(Nc2cc(C)[nH]n2)nc(Sc2ccc(NC(C)=O)cc2)nc1N1CCN(C(N)=O)CC1
7,< 100,COc1c(Nc2cc(C)[nH]n2)nc(Sc2ccc(NC(C)=O)cc2)nc1N1CC2CCC(C1)N2CCN(C)C
8,< 100,COc1c(Nc2cc(C)[nH]n2)nc(Sc2ccc(NC(C)=O)cc2)nc1N1CCN(C(=N)NO)CC1
9,< 100,COc1c(Nc2cc(C)[nH]n2)nc(Sc2ccc(NC(C)=O)cc2)nc1N1CCN(C(=N)N)CC1
10,< 100,COc1c(Nc2cc(C)[nH]n2)nc(Sc2ccc(NC(C)=O)cc2)nc1N1CCN(CCN2CCCCCC2)CC1
11,< 100,COc1c(Nc2cc(C)[nH]n2)nc(Sc2ccc(NC(C)=O)cc2)nc1N1CCN(CCNC(=N)N)CC1
12,100 to 1000,COc1c(Nc2cc(C)[nH]n2)nc(Sc2ccc(NC(C)=O)cc2)nc1C1CCN(CCN(C)C)CC1
13,< 100,COc1c(Nc2cc(C)[nH]n2)nc(Sc2ccc(NC(C)=O)cc2)nc1N1CCC(CC(=O)N(C)C)CC1
14,< 100,COc1c(Nc2cc(C)[nH]n2)nc(Sc2ccc(NC(C)=O)cc2)nc1N1CC2CCC(C1)N2CCN1CCN(C)CC1
15,< 100,COc1c(Nc2cc(C)[nH]n2)nc(Sc2ccc(NC(C)=O)cc2)nc1N1CCN(CCN(C)C)CC1
16,< 100,COc1c(Nc2cc(C)[nH]n2)nc(Sc2ccc(C(=O)N(C)C)cc2)nc1N1CCN(CCN(C)C)CC1
17,< 100,COc1c(Nc2cc(C)[nH]n2)nc(Sc2ccc(S(C)(=O)=O)cc2)nc1N1CCN(CCN(C)C)CC1

row,IC50 [nM],Structure (SMILES)
1,< 100,COc1c(Nc2cc(C)[nH]n2)nc(Sc2ccc(NC(C)=O)cc2)nc1N1CCN(CCN2C3CCCC2CC3)CC1
2,< 100,COc1c(Nc2cc(C)[nH]n2)nc(Sc2ccc(NC(C)=O)cc2)nc1N1CC2CCC(C1)N2CCN1CCCCCCC1
3,< 100,CC(=O)Nc1ccc(Sc2nc(Nc3cc(C)[nH]n3)c(C)c(C3CCN(CCN(C)C)CC3)n2)cc1
4,< 100,COc1c(Nc2cc(C)[nH]n2)nc(Sc2ccc(S(=O)(=O)COCc3ccccc3)cc2)nc1N1CCN(CCN(C)C)CC1
5,< 100,COc1c(Nc2ncc(C)s2)nc(Sc2ccc(S(C)(=O)=O)cc2)nc1N1CCN(CCN(C)C)CC1
6,< 100,COc1c(Nc2cc(C)[nH]n2)nc(Sc2ccc(S(=O)(=O)CCO)cc2)nc1N1CCN(CCN(C)C)CC1
7,< 100,COc1c(Nc2cc(C)[nH]n2)nc(Sc2ccc(S(=O)(=O)CC(C)C)cc2)nc1N1CCN(CCN(C)C)CC1
8,< 100,COc1c(Nc2cc(C)[nH]n2)nc(Sc2ccc(S(=O)(=O)C(C)C)cc2)nc1N1CCN(CCN(C)C)CC1
9,< 100,COc1c(Nc2cc(C)[nH]n2)nc(Sc2ccc(S(=O)(=O)Cc3ccc(F)cc3)cc2)nc1N1CCN(CCN(C)C)CC1
10,< 100,COc1ccc(CS(=O)(=O)c2ccc(Sc3nc(Nc4cc(C)[nH]n4)c(OC)c(N4CCN(CCN(C)C)CC4)n3)cc2)cc1
11,< 100,COc1c(Nc2cc(C)[nH]n2)nc(Sc2ccc(S(=O)(=O)Cc3ccccc3)cc2)nc1N1CCC(CCN(C)C)CC1
12,< 100,COc1c(Nc2cc(C)[nH]n2)nc(Sc2ccc(S(=O)(=O)Cc3ccccc3)cc2)nc1N1CCN(C)CC1
13,< 100,CCS(=O)(=O)c1ccc(Sc2nc(Nc3cc(C)[nH]n3)c(OC)c(N3CCN(C)CC3)n2)cc1
14,< 100,COc1c(Nc2cc(C)[nH]n2)nc(Sc2ccc(S(=O)(=O)Cc3cccnc3)cc2)nc1N1CCN(CCN(C)C)CC1
15,< 100,COc1c(Nc2cc(C)[nH]n2)nc(Sc2ccc(S(=O)(=O)Cc3ccccc3)cc2)nc1N1CCN(CCN2C3CCCC2CCC3)CC1
16,< 100,CCS(=O)(=O)c1ccc(Sc2nc(Nc3cc(C)[nH]n3)c(OC)c(N3CCNCC3)n2)cc1
